Measurements: patent US4311699A, “Aminoacid derivatives of cephalosporin compounds” (priority 1980, dated 1982)
In brackets after ≈: the same amount, converted by molar mass. Where two headings read alike, the source gives them in different places.

Experiments:
Assay in all cases: in vitro antibacterial activity, minimal inhibitory concentration
Format in all cases: cell-based
Staph. aureus UC-76 = conditions: Staph. aureus UC-76, in vitro; for MIC: Staphylococcus aureus, UC76
Excerpt: (§1) The compounds of the invention are new chemical compounds that are used as pharmacological agents and especially as broad spectrum antibacterial agents. They are active in vitro against strains of both gram-positive and gram-negative bacteria.
(§2) Minimal Inhibitory Concentration (μg/ml)

Pseudomonas #28 = conditions: for MIC: read-out: Minimal Inhibitory Concentration
Excerpt: as §1, §2

Pseudomonas BRK 12-4-4 = conditions: Pseudomonas BRK 12-4-4, in vitro; for MIC: BRK1244
Excerpt: as §1, §2

Strep. fec. = tested on: Strep. fec.
Excerpt: as §1, §2

Serr. marces. = tested on: Serr. marces.
Excerpt: as §1, §2

Prot. vulg. = tested on: Prot. vulg.
Excerpt: as §1, §2

Entero. cloacae = conditions: for MIC: Enterobacter cloacae
Excerpt: as §1, §2

E. coli Brig = conditions: for MIC: Escherichia coli
Excerpt: as §1, §2

Staph. aureus S18733 = conditions: for MIC: Staphylococcus aureus
Excerpt: as §1, §2

Pseudomonas UI 18 = conditions: Pseudomonas UI 18, in vitro; for MIC: UI18
Excerpt: as §1, §2

Klebs. pneu. = tested on: Klebs. pneu.
Excerpt: as §1, §2

E. coli Vogel = conditions: for MIC: Escherichia coli
Excerpt: as §1, §2

Structure (SMILES)	MIC (Staph. aureus UC-76) [µg/mL]	MIC (Pseudomonas BRK 12-4-4) [µg/mL]	MIC (Strep. fec.) [µg/mL]	MIC (Serr. marces.) [µg/mL]	MIC (Prot. vulg.) [µg/mL]	MIC (Entero. cloacae) [µg/mL]	MIC (E. coli Brig) [µg/mL]	MIC (Staph. aureus S18733) [µg/mL]	MIC (Pseudomonas UI 18) [µg/mL]	MIC (Klebs. pneu.) [µg/mL]	MIC (E. coli Vogel) [µg/mL]	MIC (Pseudomonas #28; Pseudomonas #28, in vitro) [µg/mL]	other results
CC(=O)OCC1=C(C(=O)O)N2C(=O)C(NC(=O)[C@H](NC(=O)c3cnc(-c4ccc(NC(=O)[C@@H]5C[C@@H](O)CN5C(C)=O)cc4)nc3O)c3ccccc3)[C@H]2SC1 (stereo partly drawn) [Example 15, N-[2-[4-(N-Acetyl-L-hydroxyprolylamino)phenyl]-4-hydroxy-5-pyrimidinylcarbonyl]-7-[D-2-amino-2-phenylacetamido]-3-acetoxymethyl-3-cephem-4-carboxylic acid]	–	–	–	–	–	–	–	–	–	–	–	–	Minimal Inhibitory Concentration (Staph. aureus UC-76): 1.6 µg/mL; Minimal Inhibitory Concentration (Pseudomonas #28; Pseudomonas #28, in vitro): 3.1 µg/mL; Minimal Inhibitory Concentration (Pseudomonas BRK 12-4-4): 12.5 µg/mL; Minimal Inhibitory Concentration (Strep. fec.): 25 µg/mL; Minimal Inhibitory Concentration (Serr. marces.): > 50 µg/mL; Minimal Inhibitory Concentration (Prot. vulg.): 50 µg/mL; Minimal Inhibitory Concentration (Entero. cloacae): > 50 µg/mL; Minimal Inhibitory Concentration (E. coli Brig): 50 µg/mL; Minimal Inhibitory Concentration (Staph. aureus S18733): 6.3 µg/mL; Minimal Inhibitory Concentration (Pseudomonas UI 18): 3.1 µg/mL; Minimal Inhibitory Concentration (Klebs. pneu.): 12.5 µg/mL; Minimal Inhibitory Concentration (E. coli Vogel): 6.3 µg/mL
CC(=O)OCC1=C(C(=O)O)N2C(=O)[C@@H](NC(=O)[C@H](NC(=O)c3cnc(-c4ccc(NC(=O)C5CCC(=O)N5)cc4)nc3O)c3ccccc3)[C@H]2SC1 (mixture of isomers) [Example 6, N-[2-]4-((5-oxo-DL-prolyl)amino)phenyl]-4-hydroxy-5-pyrimidinylcarbonyl]-7-[D-2-amino-2-phenylacetamido]-3-acetoxymethyl-3-cephem-4-carboxylic acid]	1.6	12.5	50	> 50	50	50	50	6.3	12.5	25	12.5	–	MIC (Pseudomonas #28; Pseudomonas): 6.3 µg/mL
CSCCC(NC(C)=O)C(=O)Nc1ccc(-c2ncc(C(=O)N[C@@H](C(=O)N[C@@H]3C(=O)N4C(C(=O)O)=C(COC(C)=O)CS[C@H]34)c3ccccc3)c(O)n2)cc1 (mixture of isomers) [Example 5, N-[2-[4-(N-Acetyl-DL-methionylamino)phenyl]-4-hydroxy-5-pyrimidinylcarbonyl]-7-[D-2-amino-2-phenylacetamido]-3-acetoxymethyl-3-cephem-4-carboxylic acid]	1.6	6.3	50	> 50	25	25	25	3.1	6.3	12.5	6.3	3.1	–
CC(=O)NC(C)(C)C(=O)Nc1ccc(-c2ncc(C(=O)N[C@@H](C(=O)N[C@@H]3C(=O)N4C(C(=O)O)=C(COC(C)=O)CS[C@H]34)c3ccccc3)c(O)n2)cc1 [Example 2, N-[2-[4-(N-Acetyl-alpha-aminoisobutyrylamino)phenyl)-4-hydroxy-5-pyrimidinylcarbonyl]-7-[D-2-amino-2-phenylacetamido]-3-acetoxymethyl-3-cephem-4-carboxylic acid]	3.1 (≈ 4.16 µM)	6.3 (≈ 8.45 µM)	> 50	> 50	25 (≈ 33.5 µM)	50 (≈ 67 µM)	50 (≈ 67 µM)	12.5 (≈ 16.8 µM)	3.1 (≈ 4.16 µM)	25 (≈ 33.5 µM)	25 (≈ 33.5 µM)	1.6 (≈ 2.15 µM)	–
CC(=O)NC(CCC(N)=O)C(=O)Nc1ccc(-c2ncc(C(=O)N[C@@H](C(=O)N[C@@H]3C(=O)N4C(C(=O)O)=C(COC(C)=O)CS[C@H]34)c3ccccc3)c(O)n2)cc1 (mixture of isomers) [Example 14, N-[2-[4-(N-Acetyl-DL-glutaminylamino)phenyl]-4-hydroxy-5-pyrimidinylcarbonyl]-7-[D-2-amino-2phenylacetamido]-3-acetoxymethyl-3-cephem-4-carboxylic acid]	1.6	12.5	50	> 50	25	50	25	6.3	12.5	12.5	6.3	6.3	–
CC(=O)NC(C)C(=O)Nc1ccc(-c2ncc(C(=O)N[C@@H](C(=O)N[C@@H]3C(=O)N4C(C(=O)O)=C(COC(N)=O)CS[C@H]34)c3ccccc3)c(O)n2)cc1 (mixture of isomers) [Example 20, N-[2-[4-(N-Acetyl-DL-alanylamino)phenyl]-4-hydroxy-5-pyrimidinylcarbonyl]-7-[D-2-amino-2-phenylacetamido]-3-carbamoyloxymethyl-3-cephem-4-carboxylic acid]	1.6	12.5	> 50	> 50	25	> 50	50	3.1	6.3	25	12.5	6.3	–
